# Assay results taken from paper PMC12492365, “Drug Interaction of Dasatinib with Thymoquinone: A Pharmacokinetic Study in Rats” (International Journal of Medical Sciences, 2025).
# Where two headings read alike, the source gives them in different places.
# Legend:
# BCRP = assay: Western blot of BCRP protein expression in liver and lumen tissues; assay type: in vivo, Wistar rats; settings: for Induction of BCRP protein expression: oral DAS vs untreated animals; for Inhibition of BCRP protein expression: TQ pretreatment in the DAS treatment group
# Procedure: (§1) The adult male Wistar rats (204-226 g) were procured from the College of Pharmacy Animal Care and Use Facility, King Saud University, Riyadh, Saudi Arabia. The animals were hold in polycarbonate rat cages, with 12h light/dark cycle at 25 ± 2 °C. All groups were allowed ad libitum before the study. This study was conducted following the ethical guidelines approved by the facility and the study was approved by the King Saud University College of Pharmacy Research Ethics Committee (KSU-SE-21-58). Overnight fasted animals (n=24) were divided into four groups (n=6 per group). Group I (normal controls) and Group II were administered normal saline by oral gavage for seven consecutive days. On the seventh day, Group II received a single dose of DAS (25 mg/kg, p.o.) via oral gavage. Group III received TQ (40 mg/kg, p.o.) via oral gavage for seven days, and two hours after the final TQ dose, DAS (25 mg/kg, p.o.) was administered by oral gavage. Group IV received TQ (40 mg/kg/day) by oral gavage for seven consecutive days. For the PK study, blood samples were collected via a tail vein in heparinized vacutainers at various time intervals (i.e., 0, 0.5, 1, 2, 4, 6, 8, 10, 12 h post DAS dosing). The collected blood was centrifuged at 3000 ×g for 10 minutes to separate the plasma, which was then collected and stored in Eppendorf tubes for UHPLC-MS/MS analysis. After completion of the study, the animals were euthanized, and liver and lumen tissues were collected for Western blot analysis. DAS concentrations in plasma samples were determined using an UHPLC-MS/MS method according to a previously described method. Briefly, DAS and ibrutinib (IBR;(internal standard, IS) were separated on an Acquity BEH C18 column. Prior to sample analysis, the method underwent validation for precision and accuracy. A non-compartmental analysis was empoyed to calculate the PK parameters of DAS using the PK Solver software (version 1.01).
# (§2) The liver and intestine tissues were homogenized in RIPA lysis buffer and incubated for 30 minutes, followed by centrifugation at 10,000 rpm for 20 minutes at 4 °C. The supernatants were then collected and stored at -20 °C. Total protein content was determined using the bicinchoninic acid (BCA) assay. Protein expression of CYP3A2, Pgp, and BCRP proteins were analyzed according to previously published methods, [17], [34], [35].
# (§3) All data are expressed as the mean ± SEM. The pharmacokinetic and protein expression data were compared using one-way analysis of variance followed by Dunnett's test and a p value of ≤0.05 was used for statistical significance.
# Pgp = assay: Western blot of Pgp protein expression in liver and lumen tissues; assay type: in vivo, Wistar rats; settings: for Increase of Pgp expression: DAS 25 mg/kg p.o. vs untreated animals; for Suppression of Pgp expression: TQ pretreatment in DAS-treated rats vs DAS group
# Procedure: as §1, §2, §3
# rats = settings: 30 mg/kg, no reference given; cited from earlier work
# CYP3A2 = assay: Western blot of CYP3A2 protein expression in liver and lumen tissues; assay type: in vivo, Wistar rats; settings: for Elevation of CYP3A2 protein expression: DAS 25 mg/kg p.o. vs normal controls; for Suppression of CYP3A2 upregulation: TQ 40 mg/kg p.o. seven days in DAS-treated rats vs DAS group
# Procedure: as §1, with “On the seventh day, Group II received a single dose of DAS (25 mg/kg, p.o.) via oral gavage. Group III received TQ (40 mg/kg, p.o.) via oral gavage for seven days, and two hours after the final TQ dose, DAS (25 mg/kg, p.o.) was administered by oral gavage.” left out, “For the PK study, blood samples were collected via a tail vein in heparinized vacutainers at various time intervals (i.e., 0, 0.5, 1, 2, 4, 6, 8, 10, 12 h post DAS dosing).” left out, “DAS concentrations in plasma samples were determined using an UHPLC-MS/MS method according to a previously described method.” left out, “1.01). The liver and intestine tissues were homogenized in RIPA lysis buffer and incubated for 30 minutes, followed by centrifugation at 10,000 rpm for 20 minutes at 4 °C. The supernatants were then collected and stored at -20 °C. Total protein content was determined using the bicinchoninic acid (BCA) assay. Protein expression of CYP3A2, Pgp, and BCRP proteins were analyzed according to previously published methods, [17], [34], [35]. All data are expressed as the mean ± SEM.” for “1.01).”
# [1] = Pharmacokinetic study of oral dasatinib with and without TQ pretreatment, plasma UHPLC-MS/MS, non-compartmental analysis; assay type: in vivo, Wistar rats; settings: rats
# Procedure: as §1, §3
# wistar rats = system: wistar rats; set-up: method as in PMID 23440704, PMID 32273798; settings: ref [46], [47], cited from earlier work
# [2] = DAS 25 mg/kg p.o. alone, mean ±SEM
# [3] = DAS+TQ vs DAS alone, positive = increase
# [4] = TQ pretreatment vs control (DAS alone), given as decrease
# [5] = male, Wistar, rat, plasma, po, DAS 25 mg/kg p.o. alone, mean ±SEM
structure (smiles),measurement,setting,value
"Cc1nc(Nc2ncc(C(=O)Nc3c(C)cccc3Cl)s2)cc(N2CCN(CCO)CC2)n1 [DAS, Dasatinib]",Induction of BCRP protein expression,BCRP; liver,74.82%
same,Induction of BCRP protein expression,BCRP; lumen,76.05%
same,Increase of Pgp expression,Pgp; liver,75.62%
same,Increase of Pgp expression,Pgp; lumen,77.19%
same,Tolerability in acute toxicity studies,rats,well tolerated
same,Elevation of CYP3A2 protein expression,CYP3A2; liver,91.84%
same,Elevation of CYP3A2 protein expression,CYP3A2; lumen,93.47%
same,AUMC0-∞,[1]; [2],29259.52 ±3397.55 ng/ml*h^2
same,CL,[1]; [2],0.01 ±0.00 (mg/kg)/(ng/ml)/h
same,Vd,[1]; [2],0.11 ±0.00 (mg/kg)/(ng/ml)
same,% Change in AUC0-t of DAS,[1]; [3],166.53%
same,% Change in AUMC0-∞ of DAS,[1]; [3],0.34%
same,% Change in Cmax of DAS,[1]; [3],213.26%
same,% Change in Kel of DAS,[1]; [3],93.85%
same,% Change in Tmax of DAS,[1]; [3],83.33%
same,Decrease (reduction) in CL of DAS,[1]; [4],36.35%
same,Decrease (reduction) in Vd of DAS,[1]; [4],67.70%
same,Decrease in MRT of DAS,[1]; [4],49.12%
same,AUC(0-inf),[1]; [5],2500 ± 113 ng·h/mL
same,AUC(0-t),[1]; [5],1610 ± 28.9 ng·h/mL
same,Cmax,[1]; [5],246 ± 3.34 ng/mL
same,MRT,[1]; [5],11.5 ± 0.81 h
same,half-life,[1]; [5],7.77 ± 0.65 h
same,k el,[1]; [5],2.5e-05 s⁻¹
"CC1=CC(=O)C(C(C)C)=CC1=O [TQ, 2-Methyl-5-(propan-2-yl)cyclohexa-2,5-diene-1,4-dione]",Effect on liver and lumen BCRP protein levels,BCRP; TQ treatment alone vs normal controls,no significant changes
same,Inhibition of BCRP protein expression,BCRP; liver,50.48%
same,Inhibition of BCRP protein expression,BCRP; lumen,48.46%
same,Effect on liver and lumen Pgp protein expressions,Pgp; TQ pretreatment alone vs untreated animals,did not affect
same,Suppression of Pgp expression,Pgp; liver,47.97%
same,Suppression of Pgp expression,Pgp; lumen,37.72%
same,maximum tolerated dose (MTD),"wistar rats; i.p. injection, female rats",15 mg/kg
same,maximum tolerated dose (MTD),"wistar rats; i.p. injection, male rats",22.5 mg/kg
same,maximum tolerated dose (MTD),"wistar rats; oral, both male and female rats",250 mg/kg
same,Effect on CYP3A2 expressions,CYP3A2; TQ alone 40 mg/kg/day seven days vs normal controls,did not significantly altered
same,Suppression of CYP3A2 upregulation,CYP3A2; liver,53.98%
same,Suppression of CYP3A2 upregulation,CYP3A2; lumen,40.30%
